Literature values in US20020025310A1, “Compositions and methods for promoting healthy joints” (priority 2000, published 2002).

Tests used:
isolated alveolar cells = settings: animal studies
[1] = tested on: complex I, IV, and V in hepatic mitochondria; settings: senescent mice, compared to controls without NAC supplementation
[2] = COPD patients, 600 mg per day oral, compared to patients without NAC
[3] = 800 mg orally, heavy aerobic exercise
[4] = 200 to 400 mg/day
PARS = PARS (Homo sapiens, UniProt P09874); settings: 100 mg/day supplementation, smokers with varying levels of cytogenic damage
Chain of PARS (P09874 whole entry): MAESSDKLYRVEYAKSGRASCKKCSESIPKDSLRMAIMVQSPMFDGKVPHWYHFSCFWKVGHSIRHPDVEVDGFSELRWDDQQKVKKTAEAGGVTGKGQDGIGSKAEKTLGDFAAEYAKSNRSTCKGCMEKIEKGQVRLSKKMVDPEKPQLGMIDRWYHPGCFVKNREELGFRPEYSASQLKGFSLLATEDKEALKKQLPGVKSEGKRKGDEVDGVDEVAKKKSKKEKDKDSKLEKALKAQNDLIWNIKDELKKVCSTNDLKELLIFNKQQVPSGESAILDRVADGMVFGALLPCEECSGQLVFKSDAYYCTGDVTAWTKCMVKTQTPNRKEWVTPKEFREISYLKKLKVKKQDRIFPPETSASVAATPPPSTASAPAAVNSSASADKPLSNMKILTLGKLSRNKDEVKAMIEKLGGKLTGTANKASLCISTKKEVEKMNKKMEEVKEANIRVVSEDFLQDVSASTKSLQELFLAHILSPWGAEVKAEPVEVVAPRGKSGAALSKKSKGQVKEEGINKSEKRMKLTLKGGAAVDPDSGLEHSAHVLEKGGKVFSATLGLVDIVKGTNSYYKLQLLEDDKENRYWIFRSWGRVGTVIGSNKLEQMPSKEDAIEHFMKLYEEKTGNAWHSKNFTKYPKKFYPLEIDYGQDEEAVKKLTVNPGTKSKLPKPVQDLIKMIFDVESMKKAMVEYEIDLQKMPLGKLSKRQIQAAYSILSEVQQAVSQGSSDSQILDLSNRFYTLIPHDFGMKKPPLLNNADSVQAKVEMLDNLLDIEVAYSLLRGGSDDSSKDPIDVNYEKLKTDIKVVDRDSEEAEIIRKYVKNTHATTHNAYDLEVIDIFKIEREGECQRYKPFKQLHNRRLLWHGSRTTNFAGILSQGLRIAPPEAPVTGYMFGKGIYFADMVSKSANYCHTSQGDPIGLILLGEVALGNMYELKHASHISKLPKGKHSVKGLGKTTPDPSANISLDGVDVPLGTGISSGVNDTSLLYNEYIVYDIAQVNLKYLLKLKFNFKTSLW

Row | Structure (SMILES) | intracellular ATP depletion after oxidant exposure (isolated alveolar cells) | specific activities of complex I, IV, and V in hepatic mitochondria [1] | individuals reporting side effects (400 to 6400 mg/m^2/day in divided doses) | significant side effects (400 to 6400 mg/m^2/day in divided doses, doubled each month) | dose exceeded before any difficulty was reported (individuals reporting side effects) [mg/m^2] | bacterial-positive cultures [2] | clinical course [2] | use of bronchodilators [2] | exercise-associated damage in leukocyte DNA [3] | glutathione-to-glutathione disulfide ratio [3] | plasma lipid peroxide level [3] | glutathione disulfide-to-reduced glutathione ratio [4] | intercellular glutathione levels [4] | PARS activity (PARS)
1 | CC(=O)N[C@@H](CS)C(=O)O [NAC, N-acetylcysteine] | helps protect | significantly higher | 13 of 26 | bad taste and GI disturbances | > 800 | fewer bacterial-positive cultures | improved clinical course | reduced use of bronchodilators | less exercise-associated damage in leukocyte DNA | increased | lowered | reduction | significant increase | 
2 | O=C(O)c1cccnc1 [nicotinic acid] |  |  |  |  |  |  |  |  |  |  |  |  |  | did not result in a significant reduction
